Our source for the LC retention time values is the RepoRT retention time repository (doi:10.1016/j.aca.2011.12.065).

Structures can show the parent of a compound that is named as a salt.

The nature of one data set: RP, Waters ACQUITY UPLC BEH C18, 100 × 2.1 mm, 1.7 µm; A: water + 0.1% formic acid, pH 3; B: 80% acetonitrile + 20% acetone + 0.1% formic acid, pH 3; gradient (min/%B) 0/0 6/100. The following applies: stereoisomer not certain.
Take `CC(CCC(=O)O)C1CCC2C3C(O)CC4CC(O)CCC4(C)C3CC(O)C12C` (stereo not given) [Cholic acid]: the LC retention time was determined as 3.4 min.

On to `O=C(O)CC(O)(CC(=O)O)C(=O)O` [Citric acid], for which the LC retention time was found to be 0.785 min.

For `NC(=O)NCCCC(N)C(=O)O` (stereo not given) [Citrulline], the LC retention time came to 0.575 min.

`CC12CCC(=O)C=C1CCC1C2C(=O)CC2(C)C1CCC2(O)C(=O)CO` (stereo not given) [Cortisone]: the LC retention time was 2.61 min.

As to `CN1CC(=O)NC1=N` [Creatinine], the LC retention time worked out at 0.572 min.

Consider `CC(O)C1NC(=O)C2CCCN2C1=O` (stereo not given) [Cyclic(pro-thr)], for which the LC retention time worked out at 1.37 min.

On to `CC(CCC(=O)O)C1CCC2C3CCC4CC(O)CCC4(C)C3CC(O)C12C` (stereo not given) [Deoxycholic acid], for which the LC retention time was 3.94 min.

`NC(CCCCNC(=O)CO)C(=O)O` (stereo not given) [GALA ((2s)-2-amino-6-(2-hydroxy-acetylamino)-hexanoic acid)]: the LC retention time amounted to 0.676 min.

Turning to `O=C(O)CCCC(=O)O` [Glutaric acid], the LC retention time came to 1.37 min.

Consider `O=C(O)CNC(=O)c1ccccc1` [Hippuric acid], for which the LC retention time is 1.77 min.

With `CC(C(=O)O)C(=O)O` [Methylmalonic acid], the LC retention time was determined as 1.27 min.

For the compound `CC1(O)CCOC(=O)C1` (stereo not given) [Mevalonolactone], the LC retention time was 1.38 min.

On to `CN(C)CC(=O)O` [N,N-dimethylglycine], for which the LC retention time is 0.572 min.

With `CSCCC(NC(=O)Cc1ccccc1)C(=O)O` (stereo not given) [N-phenylacetyl-methionine], the LC retention time was determined as 2.58 min.

`O=C(O)Cc1ccccc1` [Phenylacetic acid]: the LC retention time stood at 1.19 min.

As for `O=C(O)CCCCCC(=O)O` [Pimelic acid], the LC retention time is 1.72 min.

As for `O=C(O)C1CCCN1` (stereo not given) [Proline], the LC retention time is 0.626 min.

As to `O=C1CCC(C(=O)O)N1` (stereo not given) [Pyroglutamic acid], the LC retention time amounted to 0.836 min.

As to `Cc1cc2nc3c(=O)[nH]c(=O)nc-3n(CC(O)C(O)C(O)CO)c2cc1C` (stereo not given) [Riboflavin], the LC retention time amounted to 1.68 min.

With `NCCS(=O)(=O)O` [Taurine], the LC retention time stood at 0.556 min.

On to `CC(CCC(=O)NCCS(=O)(=O)O)C1CCC2C3C(O)CC4CC(O)CCC4(C)C3CC(O)C12C` (stereo not given) [Taurocholic acid], for which the LC retention time was determined as 2.85 min.

With `CC(O)C(N)C(=O)O` (stereo not given) [Threonine], the LC retention time stood at 0.574 min.

As for `O=c1cc[nH]c(=O)[nH]1` [Uracil], the LC retention time was found to be 0.752 min.

For `O=c1[nH]c(=O)c2[nH]c(=O)[nH]c2[nH]1` [Uric acid], the LC retention time was 0.752 min.

Take `COc1cc(C(=O)O)ccc1O` [Vanillic acid]: the LC retention time was 1.78 min.

On to `CNC(C)(C)C(=O)O` [alfa-(methylamino)isobutyric acid], for which the LC retention time is 0.712 min.

As for `OCC1OC(OC2C(CO)OC(O)C(O)C2O)C(O)C(O)C1O` (stereo not given) [alfa-lactose monohydrate], the LC retention time is 0.6 min.

Turning to `CC(C)c1cc2c(c(O)c1O)C13CCCC(C)(C)C1CC2OC3=O` (stereo not given) [carnosol], the LC retention time came to 4 min.

On to `NC(CCCCNCC(=O)O)C(=O)O` (stereo not given) [cml], for which the LC retention time stood at 0.676 min.

On to `COC1=C(OC)C(=O)C(CC=C(C)C)=C(C)C1=O` [coenzyme q1], for which the LC retention time is 3.92 min.

With `Nc1ccn(C2OC(CO)C(O)C2O)c(=O)n1` (stereo not given) [cytidine], the LC retention time was found to be 0.749 min.

On to `CC(C)(CO)C(O)C(=O)NCCC(=O)NCCSSCCNC(=O)CCNC(=O)C(O)C(C)(C)CO` (stereo not drawn) [d-pantethine], for which the LC retention time is 1.87 min.

For `CC(CCC(=O)O)C1CCC2C3C(=O)CC4CC(=O)CCC4(C)C3CC(=O)C12C` (stereo not given) [dehydrocholic acid], the LC retention time is 2.98 min.

As to `O=C1CCCCN1` [delta-valerolactam], the LC retention time was found to be 1.39 min.

Take `NC(CCC(=O)O)C(=O)O` (stereo not given) [glutamic acid]: the LC retention time came out at 0.577 min.

Turning to `CC(CCC(=O)NCC(=O)O)C1CCC2C3C(O)CC4CC(O)CCC4(C)C3CCC12C` (stereo not given) [glycochenodeoxycholic acid], the LC retention time is 3.46 min.

As for `CC(CCC(=O)NCC(=O)O)C1CCC2C3CCC4CC(O)CCC4(C)C3CC(O)C12C` (stereo not given) [glycodeoxycholic acid], the LC retention time came to 3.46 min.

On to `CC(CCC(=O)NCC(=O)O)C1CCC2C3CCC4CC(O)CCC4(C)C3CCC12C` (stereo not given) [glycolithocholic acid], for which the LC retention time was 3.56 min.

`Nc1nc2c(ncn2C2OC(CO)C(O)C2O)c(=O)[nH]1` (stereo not given) [guanosine]: the LC retention time worked out at 1.26 min.

As to `CC12CCC(=O)C=C1CCC1C2C(O)CC2(C)C1CCC2(O)C(=O)CO` (stereo not given) [hydrocortisone, cortisol], the LC retention time is 2.63 min.

In the case of `NCCS(=O)O` [hypotaurine], the LC retention time was 0.576 min.

As for `O=c1[nH]cnc2nc[nH]c12` [hypoxanthine], the LC retention time worked out at 0.882 min.

`OCC1OC(Oc2c[nH]c3ccccc23)C(O)C(O)C1O` (stereo not drawn) [indoxyl beta-d-glucoside]: the LC retention time is 1.7 min.

Turning to `O=C(O)C1OC(Oc2c[nH]c3ccccc23)C(O)C(O)C1O` (stereo not drawn) [indoxyl beta-d-glucuronide cyclohexylammonium salt], the LC retention time stood at 1.7 min.

For the compound `O=c1c(O)c(-c2ccc(O)cc2)oc2cc(O)cc(O)c12` [kaempferol], the LC retention time came to 2.76 min.

Another data set is described as follows: RP, Waters ACQUITY UPLC HSS T3, 100 × 2.1 mm, 1.8 µm; A: water + 0.1% formic acid, pH 3; B: 30% methanol + 70% acetonitrile + 0.1% formic acid, pH 3; gradient (min/%B) 0.0/5 1.0/8 2.0/15 3.0/40 4.0/70 4.5/100 5.0/100 6.4/100 6.6/5.0 6.8/5.0 7.0/5.0. The following applies: stereoisomer not certain.
`CC(CCC(=O)O)C1CCC2C3C(O)CC4CC(O)CCC4(C)C3CC(O)C12C` (stereo not given) [Cholic acid]: the LC retention time is 4.46 min.

On to `O=C(O)CC(O)(CC(=O)O)C(=O)O` [Citric acid], for which the LC retention time was determined as 0.659 min.

For `NC(=O)NCCCC(N)C(=O)O` (stereo not given) [Citrulline], the LC retention time is 0.47 min.

As to `CC12CCC(=O)C=C1CCC1C2C(=O)CC2(C)C1CCC2(O)C(=O)CO` (stereo not given) [Cortisone], the LC retention time is 3.84 min.

For the compound `CN1CC(=O)NC1=N` [Creatinine], the LC retention time was 0.467 min.

As to `CC(O)C1NC(=O)C2CCCN2C1=O` (stereo not given) [Cyclic(pro-thr)], the LC retention time amounted to 1.54 min.

Regarding `CC(CCC(=O)O)C1CCC2C3CCC4CC(O)CCC4(C)C3CC(O)C12C` (stereo not given) [Deoxycholic acid], the LC retention time worked out at 4.62 min.

In the case of `NC(CCCCNC(=O)CO)C(=O)O` (stereo not given) [GALA ((2s)-2-amino-6-(2-hydroxy-acetylamino)-hexanoic acid)], the LC retention time stood at 0.527 min.

With `O=C(O)CCCC(=O)O` [Glutaric acid], the LC retention time was 1.32 min.

As for `O=C(O)CNC(=O)c1ccccc1` [Hippuric acid], the LC retention time is 3.1 min.

With `CC(C(=O)O)C(=O)O` [Methylmalonic acid], the LC retention time amounted to 0.539 min.

On to `CC1(O)CCOC(=O)C1` (stereo not given) [Mevalonolactone], for which the LC retention time amounted to 1.19 min.

`CN(C)CC(=O)O` [N,N-dimethylglycine]: the LC retention time came out at 0.47 min.

`CSCCC(NC(=O)Cc1ccccc1)C(=O)O` (stereo not given) [N-phenylacetyl-methionine]: the LC retention time came to 3.79 min.

Consider `O=C(O)Cc1ccccc1` [Phenylacetic acid], for which the LC retention time was 0.861 min.

On to `O=C(O)CCCCCC(=O)O` [Pimelic acid], for which the LC retention time came out at 3.17 min.

In the case of `O=C(O)C1CCCN1` (stereo not given) [Proline], the LC retention time came out at 0.506 min.

Consider `O=C1CCC(C(=O)O)N1` (stereo not given) [Pyroglutamic acid], for which the LC retention time is 0.731 min.

Regarding `Cc1cc2nc3c(=O)[nH]c(=O)nc-3n(CC(O)C(O)C(O)CO)c2cc1C` (stereo not given) [Riboflavin], the LC retention time was 3.38 min.

For `NCCS(=O)(=O)O` [Taurine], the LC retention time was 0.47 min.

In the case of `CC(CCC(=O)NCCS(=O)(=O)O)C1CCC2C3C(O)CC4CC(O)CCC4(C)C3CC(O)C12C` (stereo not given) [Taurocholic acid], the LC retention time came to 4.26 min.

As for `CC(O)C(N)C(=O)O` (stereo not given) [Threonine], the LC retention time amounted to 0.475 min.

Turning to `O=c1cc[nH]c(=O)[nH]1` [Uracil], the LC retention time came to 0.628 min.

For the compound `O=c1[nH]c(=O)c2[nH]c(=O)[nH]c2[nH]1` [Uric acid], the LC retention time is 0.618 min.

Regarding `COc1cc(C(=O)O)ccc1O` [Vanillic acid], the LC retention time came out at 3.17 min.

Regarding `CNC(C)(C)C(=O)O` [alfa-(methylamino)isobutyric acid], the LC retention time came out at 0.531 min.

Consider `OCC1OC(OC2C(CO)OC(O)C(O)C2O)C(O)C(O)C1O` (stereo not given) [alfa-lactose monohydrate], for which the LC retention time came to 0.476 min.

In the case of `CC(C)c1cc2c(c(O)c1O)C13CCCC(C)(C)C1CC2OC3=O` (stereo not given) [carnosol], the LC retention time worked out at 4.51 min.

Take `NC(CCCCNCC(=O)O)C(=O)O` (stereo not given) [cml]: the LC retention time was found to be 0.527 min.

Regarding `COC1=C(OC)C(=O)C(CC=C(C)C)=C(C)C1=O` [coenzyme q1], the LC retention time came out at 4.47 min.

Take `Nc1ccn(C2OC(CO)C(O)C2O)c(=O)n1` (stereo not given) [cytidine]: the LC retention time amounted to 0.533 min.

For `CC(C)(CO)C(O)C(=O)NCCC(=O)NCCSSCCNC(=O)CCNC(=O)C(O)C(C)(C)CO` (stereo not drawn) [d-pantethine], the LC retention time worked out at 3.44 min.

For `CC(CCC(=O)O)C1CCC2C3C(=O)CC4CC(=O)CCC4(C)C3CC(=O)C12C` (stereo not given) [dehydrocholic acid], the LC retention time was found to be 4.05 min.

On to `O=C1CCCCN1` [delta-valerolactam], for which the LC retention time was found to be 1.69 min.

Turning to `NC(CCC(=O)O)C(=O)O` (stereo not given) [glutamic acid], the LC retention time came out at 0.475 min.

Take `CC(CCC(=O)NCC(=O)O)C1CCC2C3C(O)CC4CC(O)CCC4(C)C3CCC12C` (stereo not given) [glycochenodeoxycholic acid]: the LC retention time was 4.23 min.

In the case of `CC(CCC(=O)NCC(=O)O)C1CCC2C3CCC4CC(O)CCC4(C)C3CC(O)C12C` (stereo not given) [glycodeoxycholic acid], the LC retention time is 4.44 min.

For the compound `CC(CCC(=O)NCC(=O)O)C1CCC2C3CCC4CC(O)CCC4(C)C3CCC12C` (stereo not given) [glycolithocholic acid], the LC retention time is 4.61 min.

As for `Nc1nc2c(ncn2C2OC(CO)C(O)C2O)c(=O)[nH]1` (stereo not given) [guanosine], the LC retention time amounted to 1.18 min.

Regarding `CC12CCC(=O)C=C1CCC1C2C(O)CC2(C)C1CCC2(O)C(=O)CO` (stereo not given) [hydrocortisone, cortisol], the LC retention time turned out to be 3.87 min.

For `NCCS(=O)O` [hypotaurine], the LC retention time is 0.468 min.

In the case of `O=c1[nH]cnc2nc[nH]c12` [hypoxanthine], the LC retention time was 0.706 min.

With `OCC1OC(Oc2c[nH]c3ccccc23)C(O)C(O)C1O` (stereo not drawn) [indoxyl beta-d-glucoside], the LC retention time came to 2.92 min.

For the compound `O=C(O)C1OC(Oc2c[nH]c3ccccc23)C(O)C(O)C1O` (stereo not drawn) [indoxyl beta-d-glucuronide cyclohexylammonium salt], the LC retention time came out at 2.95 min.

Regarding `O=c1c(O)c(-c2ccc(O)cc2)oc2cc(O)cc(O)c12` [kaempferol], the LC retention time was 3.88 min.
